Marks after values point to notes of the source that are not given here.
Test system: Hydrochloric acid-Ethanol-Induced Ulcers
Test: Hydrochloric acid-Ethanol-Induced Ulcers
Assay type: in vivo, male Wister rats
Conditions: for inhibition in vivo at 20 mg/kg: 3 h; for inhibition in vivo at 10 mg/kg: dose 10 mg/kg intraduodenally one hour before hydrochloric acid - 60% ethanol
Description: Experiments on Hydrochloric acid-Ethanol-Induced Ulcers, Aspirin-Induced Ulcers, Water-Immersion stress-Induced Ulcers, Shay's Ulcers and Serotonin-Induced Ulcers were carried out using male Wister rats weighing about 200g in groups of six. Experiments on Ischemia-Reperfusion -Induced Gastric Lesions were carried out using male SD rats weighing about 250g in groups of six. Other than for the tests on Ischemia-Reperfusion-Induced Gastric Lesions Models, the test compounds were prepared by mixing thoroughly with polyethyleneglycol and 0.5% sodium carboxymethyl cellulose solution and emulsifying vigorously. Activities against respective ulcer models were evaluated by an inhibiting ratio obtained by dividing the difference between the ulceration indexes of the non-administered group and the test compound group by the non-administered group.
To each rat which had been fasted for 24 hours was orally administered 0.5ml of a mixed solution of 150 mM hydrochloric acid - 60% ethanol per 100g of weight. Each rat was slaughtered after one hour, a length of ulcer formed at the fundus gland area of stomach was measured and ulceration index was calculated based on the length. The test compound was administered intraduodenally one hour or three hours before the administration of mixed solution of hydrochloric acid - 60% ethanol.

[1] = Rattus norvegicus, intraduodenal, Table 1, dose 20 mg/kg intraduodenally three hours before hydrochloric acid - 60% ethanol, read-out: Inhibition ratio(%)
[2] = Rattus norvegicus, intraduodenal, 1 h, Table 2, read-out: Inhibition ratio(%)

Structure (SMILES)	inhibition in vivo at 20 mg/kg [1] [%]	other results
COC1C(OC(=O)c2ccc([N+](=O)[O-])cc2)C=C(C)C(=O)CC1(C)C (centres unmarked) [AU238, 5-methoxy-4-(4-nitrobenzoyloxy)-2,6,6-trimethyl-2-cyclohepten-1-one]	40	
COC1C(OC(=O)c2ccccc2)C=C(C)C(=O)CC1(C)C (centres unmarked) [AU223, 4-benzoyloxy-5-methoxy-2,6,6-trimethyl-2-cyclohepten-1-one]	49	
CC1=CC(OC(=O)C=Cc2ccc(O)cc2)C(O)C(C)(C)CC1=O (centres unmarked) [AU506, 5-hydroxy-4-(4-hydroxycinnamoyloxy)-2,6,6-trimethyl-2-cyclohepten-1-one]	81	
COC12CC(C)(C)C(O1)C(OC(=O)C=Cc1ccc(O)cc1)C=C2C (centres unmarked) [AU508, 4-(4-hydroxycinnamoyloxy)-1-methoxy-2,6,6-trimethyl-8-oxabicyclo [3.2.1] oct-2-ene]	82	
COc1cc(C=CC(=O)OC2C=C(C)C3(OC)CC(C)(C)C2O3)ccc1O (centres unmarked) [AU417, 4-(4-hydroxy-3-methoxycinnamoyloxy)-1-methoxy-2,6,6-trimethyl-8-oxabicyclo [3.2.1] oct-2-ene]	69	
CC1=CC(O)C(OC(=O)c2nc[nH]c2C)C(C)(C)CC1=O (centres unmarked) [AU504, 4-hydroxy-5-(5-methyl-4-imidazolylcarbonyloxy)-2,6,6-trimethyl-2-cyclohepten-1-one]	39	
COC1C=C(C)C(=O)CC(C)(C)C1OC(=O)c1ccc2nc(N)[nH]c2c1 (centres unmarked) [AU415, 5-(2-aminobenzimidazolyl-5-carbonyloxy)-4-methoxy-2,6,6-trimethyl-2-cyclohepten-1-one]	30	
COC1C(O)C=C(C)C(OC(=O)c2ccccc2)CC1(C)C (centres unmarked) [AU227, 1-benzoyloxy-5-methoxy-2,6,6-trimethyl-2-cyclohepten-4-ol]	47	
COC12CC(C)(C)C(O1)C(O)CC2C (stereo not drawn) [AU105A, 2,4-trans-1-methoxy-2,6,6-trimethyl-8-oxabicyclo [3.2.1] octan-4-ol]		Inhibition ratio(%) (Table 1, dose 20 mg/kg intraduodenally three hours before hydrochloric acid - 60% ethanol, 20 mg/kg): 44* %
CC(=O)Oc1ccc(C(=O)OC2C=C(C)C(=O)CC(C)(C)C2O)cc1 (centres unmarked) [AU217, 4-(4-acetoxybenzoyloxy)-5-hydroxy-2,6,6-trimethyl-2-cyclohepten-1-one]	48	
CC1=CC(OCc2ccccc2)C(O)C(C)(C)CC1=O (centres unmarked) [AU156, 4-benzyloxy-5-hydroxy-2,6,6-trimethyl-2-cyclohepten-1-one]		inhibition in vivo at 10 mg/kg [2]: 97%
COc1ccc(C(=O)OC2C=C(C)C(=O)CC(C)(C)C2O)cc1 (centres unmarked) [AU195, 5-hydroxy-4-(4-methoxybenzoyloxy)-2,6,6-trimethyl-2-cyclohepten-1-one]	40	
COC12CC(C)(C)C(OC(C)=O)C(C=C1C)O2 (centres unmarked) [AU159, 4-acetoxy-1-methoxy-3,3,7-trimethyl-8-oxabicyclo [3.2.1] oct-6-ene]		inhibition in vivo at 5 mg/kg (Rattus norvegicus, intraduodenal, 1 h, Table 2, dose 5 mg/kg intraduodenally one hour before hydrochloric acid - 60% ethanol, read-out: Inhibition ratio(%)): 94%; inhibition in vivo at 10 mg/kg [2]: 83%
CC(=O)OC1C=C(C)C(=O)CC(C)(C)C1OC(=O)c1ccccc1 (centres unmarked) [AU189, 4-acetoxy-5-benzoyloxy-2,6,6-trimethyl-2-cyclohepten-1-one]	63	
CC(=O)OC1CC(C)C(=O)CC(C)(C)C1OC(=O)c1ccccc1 (stereo not drawn) [AU192, 2,4-cis-4-acetoxy-5-benzoyloxy-2,6,6-trimethylcycloheptan-1-one]	49	
COc1ccc(COC2C=C(C)C(=O)CC(C)(C)C2O)cc1 (centres unmarked) [AUM09, 5-hydroxy-4-(4-methoxybenzyloxy)-2,6,6-trimethyl-2-cyclohepten-1-one]	17	
COC1CC(C)(C)C(OC(C)=O)C(OC(C)=O)C=C1C (centres unmarked) [AU112, 4,5-diacetoxy-1-methoxy-2,6,6-trimethyl-2-cycloheptene]	45	
CC1CC(O)C2OC1(OC(=O)c1ccccc1)CC2(C)C (stereo not drawn) [AU252, 2,4-cis-1-benzoyloxy-2,6,6-trimethyl-8-oxabicyclo [3.2.1] octan-4-ol]	31	
CC1=CC(OC(=O)c2cccc(N)c2)C(O)C(C)(C)CC1=O (centres unmarked) [AU210, 4-(3-aminobenzoyloxy)-5-hydroxy-2,6,6-trimethyl-2-cyclohepten-1-one]	26	

— patent publication EP0528699B1, “Saishin N derivatives, process for their preparation and anti-ulcer agents containing them” (TOKYO TANABE COMPANY LIMITED, priority 1991, dated 1993)
